Results published in patent US20190381024A1, “NICOTINAMIDE FOR LOWERING PHOSPHATE LEVELS IN HYPERPHOSPHATEMIA” (MEDICE Arzneimittel Putter GmbH & Co. KG, priority 2015, published 2019).
Like-named read-outs stand apart in the source and are kept apart here.

Key:
[1] = tested on: NaPi-IIb receptor; assay: Expression of NaPi-IIb receptor in the small intestine over 5 weeks (FIG. 1); format: in vivo; conditions: nicotinamide 10 mg/kg body weight, conventional binder calcium carbonate 10 mg/kg, sevelamer 20 mg/kg body weight
[2] = Clinical study of serum phosphate levels in CKD patients on hemodialysis (FIG. 2-5); format: in vivo, human
Excerpt: A study has been undertaken wherein administration of a conventional phosphate binder as well as administration of nicotinamide has been compared with the administration of a combination of a phosphate binder and nicotinamide. For concrete numbers of the amount of patients tested as well as with regard to the phosphate binder and the dosing of phosphate binder and nicotinamide, further details can be taken from the following description, also with regard to the Figures.
These findings are derived from several clinical findings in which chronic renal insufficient patients underwent various medication regimes after an initial wash out phase over 4 weeks to eliminate and to control for pre-medication effects.

[3] = tested on: NaPi-IIb; conditions: intraperitoneal administration; cited from earlier work
[4] = intraperitoneal administration; cited from earlier work
[5] = molecular target: T1, NaPi-IIb (Homo sapiens, UniProt O95436); conditions: duodenal and jejunal BBM; cited from earlier work
T1 sequence (O95436 1-690): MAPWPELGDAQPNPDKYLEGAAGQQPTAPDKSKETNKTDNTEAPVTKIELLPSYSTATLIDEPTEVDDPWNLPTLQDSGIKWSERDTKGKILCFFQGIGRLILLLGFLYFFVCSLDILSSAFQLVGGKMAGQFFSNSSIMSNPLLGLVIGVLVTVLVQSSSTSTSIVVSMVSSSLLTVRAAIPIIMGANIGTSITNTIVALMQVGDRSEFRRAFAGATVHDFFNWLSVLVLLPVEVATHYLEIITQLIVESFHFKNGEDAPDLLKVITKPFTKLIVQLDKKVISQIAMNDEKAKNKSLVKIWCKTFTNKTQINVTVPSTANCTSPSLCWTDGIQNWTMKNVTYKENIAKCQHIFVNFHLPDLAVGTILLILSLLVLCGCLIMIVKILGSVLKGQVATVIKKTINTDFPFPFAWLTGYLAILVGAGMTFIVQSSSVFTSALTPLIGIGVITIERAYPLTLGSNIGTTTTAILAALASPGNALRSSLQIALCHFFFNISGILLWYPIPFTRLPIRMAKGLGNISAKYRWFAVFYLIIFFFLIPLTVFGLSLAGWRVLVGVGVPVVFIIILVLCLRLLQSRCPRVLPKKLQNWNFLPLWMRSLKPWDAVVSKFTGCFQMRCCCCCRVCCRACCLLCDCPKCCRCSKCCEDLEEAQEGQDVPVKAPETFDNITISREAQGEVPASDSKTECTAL

[6] = animals; cited from earlier work
[7] = human, CKD patients; cited from earlier work
[8] = molecular target: T2, NaPi-IIa (Homo sapiens, UniProt Q06495); conditions: proximal renal tubule BBM (S1-S3); cited from earlier work
T2 sequence (Q06495 1-639): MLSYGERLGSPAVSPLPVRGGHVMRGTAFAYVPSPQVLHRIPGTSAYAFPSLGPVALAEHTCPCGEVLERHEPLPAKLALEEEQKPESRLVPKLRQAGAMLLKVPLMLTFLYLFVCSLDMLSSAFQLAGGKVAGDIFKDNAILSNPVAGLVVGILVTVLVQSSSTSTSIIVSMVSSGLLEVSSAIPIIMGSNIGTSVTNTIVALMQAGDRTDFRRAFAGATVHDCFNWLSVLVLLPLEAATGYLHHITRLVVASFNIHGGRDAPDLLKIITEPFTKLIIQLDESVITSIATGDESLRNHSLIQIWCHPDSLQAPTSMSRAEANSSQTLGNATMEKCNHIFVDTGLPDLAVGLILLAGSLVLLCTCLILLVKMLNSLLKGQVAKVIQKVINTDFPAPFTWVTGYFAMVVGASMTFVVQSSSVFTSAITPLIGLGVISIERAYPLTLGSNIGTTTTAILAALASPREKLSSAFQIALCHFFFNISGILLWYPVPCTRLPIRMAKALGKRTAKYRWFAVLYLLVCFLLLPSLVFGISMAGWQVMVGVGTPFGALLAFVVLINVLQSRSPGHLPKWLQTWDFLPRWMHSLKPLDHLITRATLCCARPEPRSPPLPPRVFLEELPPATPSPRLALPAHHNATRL

[9] = molecular target: T3, NaPi-IIc (Homo sapiens, UniProt Q8N130); conditions: proximal renal tubule BBM (S1); cited from earlier work
T3 sequence (Q8N130 1-599): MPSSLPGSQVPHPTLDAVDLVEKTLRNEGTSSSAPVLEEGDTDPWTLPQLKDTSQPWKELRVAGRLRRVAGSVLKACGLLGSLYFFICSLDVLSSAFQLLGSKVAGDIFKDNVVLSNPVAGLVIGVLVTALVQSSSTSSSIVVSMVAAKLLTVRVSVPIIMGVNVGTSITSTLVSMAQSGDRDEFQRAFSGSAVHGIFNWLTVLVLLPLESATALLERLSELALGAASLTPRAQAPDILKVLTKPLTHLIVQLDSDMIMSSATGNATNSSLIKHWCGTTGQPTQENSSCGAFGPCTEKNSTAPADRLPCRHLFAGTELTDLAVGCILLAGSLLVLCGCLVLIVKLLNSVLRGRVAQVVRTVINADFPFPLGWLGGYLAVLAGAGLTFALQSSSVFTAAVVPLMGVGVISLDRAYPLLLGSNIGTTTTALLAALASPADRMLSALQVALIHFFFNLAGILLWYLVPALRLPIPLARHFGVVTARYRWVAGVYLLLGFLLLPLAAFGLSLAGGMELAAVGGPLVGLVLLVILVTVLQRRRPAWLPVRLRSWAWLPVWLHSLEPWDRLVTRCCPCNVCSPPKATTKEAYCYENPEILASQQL

SMILES	expression of NaPi-IIb in the small intestine [1]	reduction of serum phosphate ([2]; combination of nicotinamide and known phosphate lowering agents versus dose-equivalent nicotinamide alone or binders alone)	patients achieving target levels <1.78 mmol/l ([2]; nicotinamide 250 to 1000 mg once daily as add on to previous conventional phosphate binder therapy, 9 weeks, n=126 ITT)	patients with phosphate levels <1.78 mmol/l ([2]; nicotinamide alone, 250 to 1000 mg oral once daily, 9 weeks, n=126 ITT)	expression of NaPi-IIb [3]	gastrointestinal absorption of phosphate [4]	Pharmacological regulators (direction of regulation) of NaPi-IIb [5]	lowering elevated phosphate levels [6]	lowering elevated phosphate levels [7]	Pharmacological regulators (direction of regulation) of NaPi-IIa [8]	Pharmacological regulators (direction of regulation) of NaPi-IIc [9]
NC(=O)c1cccnc1 [nicotinamide]	downregulates	more profound and superior reduction	69%	45%	blocks	inhibits	Nicotinamide (↓)	effective	effective		
O=C(O)P(=O)(O)O [PFA, Phosphonoformic acid]							PFA (↓)			PFA (↓)	PFA (↓)
